Laboratory results from patent US20110105441A1, “Stable Orally Disintegrating Tablets Having Low Superdisintegrant” (FMC CORPORATION, priority 2009, published 2011).
Blank lines part the entries; values can stand above or below the molecule they belong to.

Columns and labels:
[1] = Dissolution of API from ODTs (USP 31 guidelines); assay type: physicochemical; conditions: 70-80N hardness
Experimental: Dissolution properties of the ODTs were determined by following USP 31 guidelines for each model APIs. The percent of drug released at predetermined time intervals were calculated and plotted against the sampling time to obtain the release profiles. ODTs that fall within a 70-80N hardness range were studied.

[2] = cited from earlier work
[3] = cited from earlier work; remark: listed apart in the source

SMILES: CC(=O)Oc1ccccc1C(=O)O [Aspirin]
solubility in water (in words) [3]: highly water soluble

SMILES: CN(C)CC[C@@H](c1ccc(Cl)cc1)c1ccccn1.O=C(O)/C=C\C(=O)O [CPM, Chlorpheniramine Maleate]
time to full release of API from ODT ([1]; CPM ODTs): ≤ 5 min
pKa [2]: 9.2

SMILES: OC[C@@H](O)[C@@H](O)[C@H](O)[C@H](O)CO [Spray dried mannitol, mannitol]
time in which 5 g dissolves in 150 mL of water ([3]; at 20° C.): approximately 5 sec

SMILES: Cn1c(=O)c2nc[nH]c2n(C)c1=O [Theophylline]
time to full release of API from ODT ([1]; theophylline ODTs): fully released at five minutes
pKa [2]: 8.7
solubility in water ([3]; neutral distilled water at 25° C.): about 8 mg/mL

Continued, in another order:

time to full release of API from ODT ([1]; acetaminophen ODTs): ≤ 10 min
SMILES: CC(=O)Nc1ccc(O)cc1 [Acetaminophen]
pKa [2]: 9.2
solubility in water (in words) [3]: highly water soluble

time to full release of API from ODT ([1]; naproxen ODTs): ≤ 10 min
SMILES: COc1ccc2cc([C@H](C)C(=O)O)ccc2c1 [Naproxen]
